Legend:
Format in all cases: cell-based
[1] = test system: Mycobacterium marinum (ATCC # 927); experiment: Mycobacterium marinum growth control, optical absorbance at 660 nm (Example 3); settings: 72 hours
Procedure: The impact of these N-alkyl alkanolamines on the control of the bacterial species Mycobacterium marinum (ATCC # 927) is given in Table 3. Bacterial concentration in the experimental media was monitored indirectly via optical absorbance at 660 nm. The values reported are end-point optical densities in milliOD units after 72 hours. The media consisted of a standardized solution of clear nutrient broth (Middlebrook 7H 10 with OADC supplement), amine, buffer (Tris) and water. The pH was adjusted initially to 8.5 with Tris buffer. The first column in Table 3 gives the amine concentration in parts per million by weight. In all cases, the values are averages of at least three replicates. The final row of Table 3 gives an estimate of the concentration range in which the amine in question starts to inhibit the growth of this bacterial species (minimum inhibitor concentration MIC).

[2] = test system: Mycobacterium smegmatis (ATCC # 19420); experiment: Mycobacterium smegmatis growth control, optical absorbance at 660 nm (Example 2); settings: 48 hours
Procedure: The impact of these N-alkyl alkanolamines on the control of the bacterial species Mycobacterium smegmatis (ATCC # 19420) is given in the Table 2. Bacterial concentration in the experimental media was monitored indirectly via optical absorbance at 660 nm. The values reported are end-point optical densities in milliOD units after 48 hours. The media consisted of a standardized solution of clear nutrient broth (Middlebrook 7H10 with OADC supplement), amine, buffer (Tris) and water. The pH was adjusted initially to 8.5 with Tris buffer. The first column in the Table gives the amine concentration in parts per million by weight. The final two columns give data for cells that also contained 2 grams per liter of boric acid. In all cases, the values are averages of at least three replicate runs. The final row of Table 2 gives an estimate of the concentration range in which the amine in question starts to inhibit the growth of this bacterial species (minimum inhibitor concentration MIC).

[3] = test system: Mycobacterium smegmatis (ATCC # 19420); experiment: Mycobacterium smegmatis growth control, optical absorbance at 590 nm with tetrazolium dye (Example 1); settings: compared with AMP (2-amino-2-methyl-1-propanol)
[4] = with 2 grams per liter of boric acid

| Structure (SMILES) | MIC (minimum inhibitor concentration), estimated concentration range in which the amine starts to inhibit growth [1] | MIC (minimum inhibitor concentration), estimated concentration range in which the amine starts to inhibit growth ([2]; no boric acid) | MIC (minimum inhibitor concentration), estimated concentration range in which the amine starts to inhibit growth [2, 4] | effectiveness against Mycobacteria, in words [3] |
| --- | --- | --- | --- | --- |
| C1CCC(NC2CCCCC2)CC1 [DCHA, Dicyclohexylamine, reference compound] | >4000 ppm | 1500-2000 ppm | 1000-2000 ppm | – |
| CCCCCCCCN(CCO)CCO [ODEA, Octyldiethanolamine] | 1200-2000 ppm | 500-1000 ppm | – | – |
| CCCCCCCCNCCO [OAE, octylaminoethanol] | 1200-2000 ppm | <500 ppm | <500 ppm | markedly more effective than AMP |
| CCCCNCCO [BAE, butylaminoethanol] | >4000 ppm | – | – | – |
